# Test results reported in the supplement of paper PMC10307832.
# Legend:
# Test in all cases: relative viability (nuclei count vs DMSO), 5 days (fraction); higher = more cells survive
# BI-2536 + Luminespib = compound: CC[C@@H]1C(=O)N(C)c2cnc(Nc3ccc(C(=O)NC4CCN(C)CC4)cc3OC)nc2N1C1CCCC1 [BI-2536] + CCNC(=O)c1noc(-c2cc(C(C)C)c(O)cc2O)c1-c1ccc(CN2CCOCC2)cc1 [Luminespib] (partner 0.01 µM)
# How it was run: (§1)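 Relative viability divides the nuclei count in treated wells by that in vehicle wells. Lung cancer cell lines were seeded in 1536-well plates, dosed by pin tool the next day, and fixed and stained after 5 days in one step with final 0.05% Triton X-100, 1% formaldehyde and 1 ug/ml Hoechst. Dosing was a single drug or a fixed anchor-drug dose plus five library-drug doses (not always all listed) in √10 steps, and values are medians of duplicate plates imaged at 4×.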
# [1] = compound: CC1CC(=O)N(C2=CN=C(N=C2N1C3CCCC3)NC4=C(C=C(C=C4)C(=O)NC5CCN(CC5)C)OC)C [NPK76-II-72-1] + CS(=O)(=O)CCNCc1ccc(-c2ccc3ncnc(Nc4ccc(OCc5cccc(F)c5)c(Cl)c4)c3c2)o1 [Lapatinib] (partner 2 µM)
# How it was run: as §1
# BI-2536 + Palbociclib = compound: CC[C@@H]1C(=O)N(C)c2cnc(Nc3ccc(C(=O)NC4CCN(C)CC4)cc3OC)nc2N1C1CCCC1 [BI-2536] + CC(=O)c1c(C)c2cnc(Nc3ccc(N4CCNCC4)cn3)nc2n(C2CCCC2)c1=O [Palbociclib] (partner 0.5 µM)
# How it was run: as §1
# BI-2536 + Phenformin = compound: CC[C@@H]1C(=O)N(C)c2cnc(Nc3ccc(C(=O)NC4CCN(C)CC4)cc3OC)nc2N1C1CCCC1 [BI-2536] + N=C(N)NC(=N)NCCc1ccccc1 [Phenformin] (partner 250 µM)
# How it was run: as §1
Cell Line,relative viability (BI-2536 + Luminespib; first compound 0.01 µM),relative viability (BI-2536 + Luminespib; first compound 0.03162 µM),relative viability (BI-2536 + Luminespib; first compound 0.1 µM),relative viability (BI-2536 + Luminespib; first compound 0.3162 µM),relative viability (BI-2536 + Luminespib; first compound 1 µM),relative viability ([1]; first compound 0.01 µM),relative viability ([1]; first compound 0.03162 µM),relative viability ([1]; first compound 0.1 µM),relative viability ([1]; first compound 0.3162 µM),relative viability ([1]; first compound 1 µM),relative viability (BI-2536 + Palbociclib; first compound 0.01 µM),relative viability (BI-2536 + Palbociclib; first compound 0.03162 µM),relative viability (BI-2536 + Palbociclib; first compound 0.1 µM),relative viability (BI-2536 + Palbociclib; first compound 0.3162 µM),relative viability (BI-2536 + Palbociclib; first compound 1 µM),relative viability (BI-2536 + Phenformin; first compound 0.01 µM),relative viability (BI-2536 + Phenformin; first compound 0.03162 µM),relative viability (BI-2536 + Phenformin; first compound 0.1 µM),relative viability (BI-2536 + Phenformin; first compound 0.3162 µM),relative viability (BI-2536 + Phenformin; first compound 1 µM)
HCC-44,1.03,0.261,0.204,0.104,0.12,0.983,0.991,0.935,0.937,1,1.05,0.959,0.947,0.404,0.312,0.184,0.242,0.0815,0.1,0.0914
COR-L23,0.668,0.705,0.171,0.106,0.122,0.879,1.02,1.02,1.03,0.929,0.298,0.242,0.139,0.117,0.127,0.434,0.371,0.116,0.0966,0.0886
NCI-H727,0.589,0.324,0.263,0.4,0.201,0.97,1.04,0.81,0.979,0.884,0.708,0.613,0.701,0.615,0.437,0.529,0.527,0.386,0.319,0.313
NCI-H2087,0.161,0.182,0.139,0.136,0.157,1.01,0.999,0.987,0.983,1.05,0.225,0.189,0.203,0.0781,0.118,0.477,0.503,0.173,0.0945,0.102
BEN,0.486,0.611,0.282,0.158,0.217,0.61,0.548,0.657,0.492,0.697,0.481,0.506,0.455,0.401,0.366,0.262,0.249,0.207,0.231,0.186
EKVX,0.911,0.955,0.8,0.292,0.123,0.206,0.193,0.22,0.222,0.236,0.416,0.404,0.37,0.182,0.173,0.242,0.224,0.225,0.242,0.211
LXF-289,0.624,0.533,0.319,0.0739,0.0875,0.881,0.91,0.891,0.934,0.889,0.612,0.583,0.587,0.116,0.116,0.467,0.488,0.159,0.0389,0.039
ABC-1,0.54,0.293,–,0.28,0.39,1.02,1.19,1.18,1.08,1.31,0.561,0.629,0.374,0.358,0.423,0.307,0.256,0.222,0.196,0.191
NCI-H650,0.728,0.622,0.21,0.13,0.103,1.17,0.912,0.723,–,0.925,0.315,0.274,0.294,0.187,0.138,0.462,0.438,0.163,0.154,0.14
NCI-H1650,0.188,0.166,0.21,0.183,0.198,0.859,0.756,0.912,0.835,0.86,0.382,0.282,0.188,0.129,0.145,0.425,0.3,0.166,0.141,0.134
NCI-H2085,0.396,0.5,0.384,0.29,0.262,0.748,0.735,0.763,0.714,0.78,0.489,0.446,0.409,0.287,0.301,0.785,0.69,0.307,0.183,0.243
NCI-H1793,0.201,0.167,0.137,0.168,0.14,0.64,0.91,0.823,0.503,0.751,0.328,0.34,0.276,0.168,0.154,0.369,0.197,0.149,0.138,0.139
LC-2-ad,0.897,0.319,0.325,0.289,0.375,0.916,1.02,0.976,1.04,1.06,0.526,0.379,0.361,0.234,0.248,0.609,0.545,0.257,0.203,0.292
COR-L 105,0.882,0.514,0.434,0.325,0.327,0.404,0.375,0.358,0.367,0.345,0.422,0.392,0.353,0.297,0.351,0.507,0.483,0.311,0.215,0.21
NCI-H1355,0.612,0.547,0.546,0.2,0.187,0.922,0.933,0.967,0.931,1.02,0.415,0.405,0.385,0.171,0.158,0.427,0.408,0.219,0.193,0.196
